How the values were obtained:
[1] = Body weight of EC and IC rats on UMP diet; type: in vivo, Sprague Dawley rats; conditions: 0.1% UMP-2Na+ diet vs control groups
Method: Animals were maintained under standard environmental conditions (room temperature, 20-25° C.; relative humidity, 55-60%; light/dark schedule, 12/12). Seven pregnant Sprague Dawley rats (Charles River Laboratories) were obtained 1 wk prior to giving birth. […] At this time, thirty-two rats were matched according to body weight, and assigned to either IC or EC conditions.
Rats were housed in the same rack in plastic cages (52×32×20 cm high) with wire lids. Bedding and water were regularly changed, and animals were weighed each week, at which time general health assessments were made. Animals had ad libitim access to chow and water. EC rats were housed in groups of 2-3 animals Plastic toys (blocks, balls, PVC tubing, etc) placed in the EC cages were rotated between groups weekly; new toys were introduced monthly EC rats were taken to a “playroom” (12×6 ft; containing cabinets, desks, chairs, boxes, and toys) every other day for 45 min. The IC rats were housed individually, without toys, and handled three times per week to acclimatize the animals to experimenter handling and in order to alleviate fear and anxiety in subsequent behavioral training procedures. To avoid the typical weight gain caused by impoverished conditions (relative to enriched rats), IC rats were allowed to exercise three times per week for 15 min in an empty 4×6 ft room with only the experimenter present. […]

[2] = test system: dopamine (DA) release in striatal dialysate; assay: In vivo microdialysis of striatal dopamine and metabolites in aged rats on UMP diet; parameters: species or system Fischer 344 rats; conditions: control vs. UMP-1 week vs. UMP-6 weeks, 2.5% UMP diet
[3] = Plasma uridine levels after oral UMP in humans; type: in vivo; conditions: 500, 1000 or 2000 mg UMP orally; baseline and 1, 2, 4, 8 hr
Method: 1-milliliter (mL) samples of heparinized plasma were spiked with 1 μg fluoro-uridine for use as an internal standard, then deproteinized by adding methanol (5 mL).
All steps were performed at 4° C. Boronate affinity columns (Affigel-601, Bio-Rad) were primed with two 5-mL ammonium acetate washes, samples were applied, and columns were washed again with ammonium acetate, after which the nucleosides were eluted with 0.1 N formic acid (7 mL). Eluates were lyophilized, then reconstituted in 100 μL water for HPLC analysis.
HPLC analysis was performed using a Beckman System Gold apparatus (Beckman Instruments) equipped with a Rainin Dynamax Microsorb C18 column (3 μm packing; 4.6×100 mm) at room temperature. The standard HPLC method is described in Lopez-Coviella et al, (J. Neurochem 65: 889-894, 1995). For modified HPLC, an isocratic elution buffer was used containing 0.004 N potassium phosphate buffer (pH 5.8) and 0.1% methanol instead of formic acid, flowing at 1 mL/min and heated to 35°.
Eight healthy subjects (5 male, 3 female, 27-67 years old) were instructed to fast overnight and given sequentially increasing doses (500, 1000, and 2000 mg) of disodium UMP (Numico, Wageningen, NL) at 7-8 AM on each of three days, separated by at least a three-day washout period. All subjects were given lunch. Blood samples were drawn over an eight-hour period into heparinized tubes. […]

## O=c1ccn([C@@H]2O[C@H](COP(=O)([O-])[O-])[C@@H](O)[C@H]2O)c(=O)[nH]1.[Na+].[Na+] [UMP, uridine-5′-monophosphate disodium]
[1]
  Mean body weights: No significant differences
[2]
  Basal DA levels in dialysate: did not affect
  Basal DOPAC levels in dialysate: no effects
  Basal HVA levels in dialysate: no effects
[3]
  Plasma uridine levels: increased in response to oral UMP in a dose-dependent fashion

Source: US8518882B2, “Methods and compositions for ameliorating or inhibiting decline in memory or intelligence or improving same” (priority 1998, dated 2013)
